Measurements reported in ChEMBL document CHEMBL1275573, “Inhibition of herpesvirus replication by hexadecyloxypropyl esters of purine- and pyrimidine-based phosphonomethoxyethyl nucleoside phosphonates” (Antimicrob Agents Chemother, 2008).
pEC50, pIC50: −log10 of the molar value.

Key:
[1] = Antiviral activity against Epstein-Barr virus p3hr-1 infected in human daudi cells; assay type: functional, cell-based, Epstein-barr virus strain p3hr-1; conditions: human gammaherpesvirus 4, Daudi
[2] = Cytotoxicity against human HSB2 cell after 4 hrs by MTS assay; assay type: functional; conditions: CCRF-HSB-2, 4 h
[3] = Antiviral activity against Murine cytomegalovirus Smith infected in HFF cells by plaque reduction assay; assay type: functional, cell-based, Murine cytomegalovirus (strain Smith); conditions: Murid betaherpesvirus 1, HFF
[4] = Cytotoxicity against human HFF cells; assay type: cell-based
[5] = test system: Human betaherpesvirus 5; test: Antiviral activity against Human cytomegalovirus AD169 infected in HFF cells by plaque reduction assay; assay type: functional, organism-based; conditions: Human betaherpesvirus 5, AD169, HFF
[6] = Selectivity index, ratio of EC50 for Human herpesvirus 6B Z29 to CC50 for human MOLT-3 cells
[7] = Antiviral activity against Human herpesvirus 6A GS infected in human HSB-2 cells; assay type: functional, cell-based; conditions: Human betaherpesvirus 6A, HSB2
[8] = Antiviral activity against Human herpesvirus 6B Z29 infected in human MOLT-3 cells; assay type: functional, cell-based; conditions: Human betaherpesvirus 6B, Z29, MOLT-3
[9] = test system: MOLT-3; test: Cytotoxicity against human MOLT3 cell after 4 hrs by MTS assay; assay type: functional; conditions: MOLT-3, 4 h
[10] = Selectivity index, ratio of EC50 for Murine cytomegalovirus Smith to CC50 for human HFF cell
[11] = Selectivity index, ratio of EC50 for herpes simplex virus type 2 MS to CC50 for human HFF cell
[12] = test system: Human alphaherpesvirus 3; test: Antiviral activity against Varicella zoster virus Ellen infected in HFF cells by plaque reduction assay; assay type: functional, organism-based; conditions: Human alphaherpesvirus 3, Ellen
[13] = Selectivity index, ratio of EC50 for Epstein-Barr virus P3HR-1 to CC50 for human daudi cell
[14] = test system: Human alphaherpesvirus 2; test: Antiviral activity against herpes simplex virus 2 MS infected in HFF cells by plaque reduction assay; assay type: functional, organism-based; conditions: Human alphaherpesvirus 2, MS
[15] = test system: Human alphaherpesvirus 1; test: Antiviral activity against herpes simplex virus 1 E-377 infected in HFF cells by plaque reduction assay; assay type: functional, organism-based; conditions: Human alphaherpesvirus 1, E-377, HFF
[16] = Selectivity index, ratio of EC50 for herpes simplex virus type 1 E-377 to CC50 for human HFF cell
[17] = Cytotoxicity against human HFF cells after 7 days by neutral red dye method; assay type: cell-based
[18] = test system: Daudi; test: Cytotoxicity against human Daudi cell after 4 hrs by MTS assay; assay type: functional

SMILES | pEC50 [1] | CC50 [2] [µM] | pEC50 [3] | CC50 [4] [µM] | pEC50 [5] | Selectivity Index [6] | pEC50 [7] | pEC50 [8] | CC50 [9] [µM] | Selectivity Index [10] | Selectivity Index [11] | pEC50 [12] | Selectivity Index [13] | pEC50 [14] | pEC50 [15] | Selectivity Index [16] | CC50 at 168 h [17] [µM] | CC50 [18] [µM] | pIC50 [7]
Nc1nc(=O)n(CCOCP(=O)(O)O)cc1F | < 4.30 | > 41 | 4.11 | 220 | < 4.70 | 1 | < 4.30 | < 4.30 | > 50 | 2.8 |  |  |  |  |  |  |  |  | 
CCCCCCCCCCCCCCCCOCCCOP(=O)(O)COCCn1ccc(N)nc1=O | < 4.30 | > 50 | < 4.70 | 200 | < 4.70 | 1 | < 4.30 | < 4.30 | > 50 | <150 | >9 | < 3.52 | <2 | 4.46 | 3.59 | >1.1 | > 300 | > 100 | 
CCCCCCCCCCCCCCCCOCCCOP(=O)(O)COCCn1cc(Br)c(N)nc1=O | 7.52 | > 41 | 5.89 | 35 | 5.32 | 1 | 4.42 | < 4.35 | > 50 | >230 | >17 | 4.38 | >3400 | 4.74 | 5.92 | >250 | > 300 | > 100 | 
CCCCCCCCCCCCCCCCOCCCOP(=O)(O)COCCn1cc(F)c(N)nc1=O | 5.89 | 22.6 | 7.10 | 33 | 5.70 | >1 | 5.14 | 4.43 | > 50 | 440 | <3 | 5.59 | >77 | < 4.92 | < 4.92 | <3 | 35 | > 100 | 
Nc1nc(NC2CC2)c2ncn(CCOCP(=O)(O)O)c2n1 | 7.00 | 3 | > 7.22 | 150 | 6.40 | 1 | 6.00 | 5.19 | 8.5 | >1700 | >13 | 6.10 | 200 | 5.10 | 5.40 | >25 | > 100 | 20 | 
Nc1ccn(CCOCP(=O)(O)O)c(=O)n1 | < 4.39 | > 50 | 4.20 | 220 | < 4.70 | 1 |  | < 4.30 | > 50 | >480 | 1 | < 3.52 | <2.4 | < 3.52 | < 3.52 | 1 | > 300 | > 100 | < 4.30
CCCCCCCCCCCCCCCCOCCCOP(=O)(O)COCCn1cnc2c(N)nc(N)nc21 | 6.10 | 6.4 | 6.30 | 170 | 6.30 | 1 | 5.70 | 4.47 | 51 | 240 | 300 | 6.52 | >63 | 6.40 | 6.22 | 200 | 120 | > 50 | 
CCCCCCCCCCCCCCCCOCCCOP(=O)(O)COCCn1cnc2c(NC3CC3)nc(N)nc21 | 9.15 | 0.05 | > 7.52 | 26 | 7.70 | 6 | 7.30 | 7.30 | 0.3 | >3700 | 550 | 7.52 | >71000 | 6.70 | 7.00 | 1100 | 110 | > 50 | 
Nc1nc(=O)n(CCOCP(=O)(O)O)cc1Br | 4.62 | 3.9 | < 4.70 | 200 | < 4.70 | <2 | < 4.30 | < 4.33 | 84 | <150 | >5 | 4.42 | 1.1 | < 4.22 | < 4.22 | >5 | > 300 | 27 | 
Nc1nc(N)c2ncn(CCOCP(=O)(O)O)c2n1 [PMEDAP] | 5.92 | > 56 | 6.70 | 170 | 4.89 | 1 | 4.82 | 4.55 | 39 | >500 | >10 | 5.54 | >42 | < 5.00 | < 5.00 | >10 | > 100 | > 50 | 
